Source: patent US9273057B2 (Bristol-Myers Squibb Company, priority 2012, dated 2016)

Biological target: CK2A1 (CK2α/β) (Homo sapiens, UniProt P68400)
Assay: CK2 kinase assay, CK2A1 (CK2α/β)
Type: biochemical
Details: Table A; read-out: CK2A1 (CK2α/β) (IC50)
Description: For example, in vitro protein kinase assays may be conducted with a relevant purified protein kinase and an appropriate synthetic substrate to determine the inhibitory activity of the compounds. […] Reaction mixtures were incubated at 30° C. for 1 hour, and reaction products were captured by binding to phosphocellulose (P81) filter plates. Incorporation of radioactive phosphate into the peptide substrate was determined by liquid scintillation counting.
The inhibitory activity of the instant compounds may also be measured by recombinant CK2 holoenzyme kinase assays. The assays were performed in U-bottom 384-well plates. […] The reaction was initiated by the combination of bacterially expressed, CK2 α/β or CK2 holoenzyme with substrates and test compounds. The reaction was incubated at room temperature for 60 minutes and terminated by adding 30 μl of 35 mM EDTA to each sample. The reaction mixture was analyzed on the Caliper LABCHIP® 3000 (Caliper, Hopkinton, Mass.) by electrophoretic separation of the fluorescent substrate and phosphorylated product. […] Compounds were dissolved at 10 mM in dimethylsulfoxide (DMSO) and evaluated at eleven concentrations. IC50 values were derived by non-linear regression analysis.

Chain of CK2A1 (CK2α/β) (P68400 whole entry, species assumed): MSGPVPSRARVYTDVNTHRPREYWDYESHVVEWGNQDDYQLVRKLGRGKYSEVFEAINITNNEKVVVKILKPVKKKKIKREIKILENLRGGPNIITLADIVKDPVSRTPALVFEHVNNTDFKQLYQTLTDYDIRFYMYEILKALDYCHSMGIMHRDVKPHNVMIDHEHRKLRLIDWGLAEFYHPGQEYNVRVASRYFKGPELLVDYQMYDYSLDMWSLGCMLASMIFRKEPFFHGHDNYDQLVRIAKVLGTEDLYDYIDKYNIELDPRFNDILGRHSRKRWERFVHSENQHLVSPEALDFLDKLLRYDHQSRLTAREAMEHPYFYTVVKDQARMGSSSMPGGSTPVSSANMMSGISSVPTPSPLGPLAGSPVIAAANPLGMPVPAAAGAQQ
Chain of CK2A1 (CK2α/β) (P67870 whole entry partner, species assumed): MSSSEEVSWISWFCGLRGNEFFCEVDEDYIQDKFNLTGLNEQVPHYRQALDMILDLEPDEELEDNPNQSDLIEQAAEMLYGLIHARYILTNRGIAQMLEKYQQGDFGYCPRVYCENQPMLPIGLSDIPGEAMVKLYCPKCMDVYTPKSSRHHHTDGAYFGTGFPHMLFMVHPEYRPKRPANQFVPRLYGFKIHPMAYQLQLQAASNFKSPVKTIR

| SMILES | IC50 [nM] |
| --- | --- |
| CN1CCC(N2CC(F)(c3cc(C#N)cc(Nc4nc(NC5CC5)c5ncc(C#N)n5n4)c3Cl)C2)CC1 [Example 658, 2-((2-chloro-5-cyano-3-(3-fluoro-1-(1-methylpiperidin-4-yl)azetidin-3-yl)phenyl)amino)-4-(cyclopropylamino)imidazo[2,1-f][1,2,4]triazine-7-carbonitrile] | 2.27 |
| N#Cc1cc(Nc2nc(NC3CC3)c3ncc(C#N)n3n2)c(Cl)c(C2(F)CNC2)c1 [Example 659, 2-((2-chloro-5-cyano-3-(3-fluoroazetidin-3-yl)phenyl)amino)-4-(cyclopropylamino)imidazo[2,1-f][1,2,4]triazine-7-carbonitrile] | 0.4 |
| N#Cc1cc(Nc2nc(NC3CC3)c3ncc(C#N)n3n2)c(Cl)c(C2(F)COC2)c1 [Example 660, 2-((2-chloro-5-cyano-3-(3-fluorooxetan-3-yl)phenyl)amino)-4-(cyclopropylamino)imidazo[2,1-f][1,2,4]triazine-7-carbonitrile] | 0.35 |
| CN1CCC(F)(c2cc(C#N)cc(Nc3nc(NC4CC4)c4ncc(C#N)n4n3)c2Cl)CC1 [Example 661, 2-((2-chloro-5-cyano-3-(4-fluoro-1-methylpiperidin-4-yl)phenyl)amino)-4-(cyclopropylamino)imidazo[2,1-f][1,2,4]triazine-7-carbonitrile] | 1.56 |
| N#Cc1cc(Nc2nc(NC3CC3)c3ncc(C#N)n3n2)c(Cl)c(C(F)C2CCNCC2)c1 (stereo not drawn) [Example 662, 2-((2-chloro-5-cyano-3-(fluoro(piperidin-4-yl)methyl)phenyl)amino)-4-(cyclopropylamino)imidazo[2,1-f][1,2,4]triazine-7-carbonitrile] | 0.48 |
| CC(=O)N1CCC(C(F)c2cc(C#N)cc(Nc3nc(NC4CC4)c4ncc(C#N)n4n3)c2Cl)CC1 (stereo not drawn) [Example 663, 2-((3-((1-acetylpiperidin-4-yl)fluoromethyl)-2-chloro-5-cyanophenyl)amino)-4-(cyclopropylamino)imidazo[2,1-f][1,2,4]triazine-7-carbonitrile] | 0.77 |
| N#Cc1cc(CNC2CCOCC2)c(Cl)c(Nc2nc(NC3CC3)c3ncc(C#N)n3n2)c1 [Example 664, 2-((2-chloro-5-cyano-3-(((tetrahydro-2H-pyran-4-yl)amino)methyl)phenyl)amino)-4-(cyclopropylamino)imidazo[2,1-f][1,2,4]triazine-7-carbonitrile] | 0.98 |
| N#Cc1cc(CN2CCC3(CC2)COC3)c(Cl)c(Nc2nc(NC3CC3)c3ncc(C#N)n3n2)c1 [Example 665, 2-((3-(2-oxa-7-azaspiro[3.5]nonan-7-ylmethyl)-2-chloro-5-cyanophenyl)amino)-4-(cyclopropylamino)imidazo[2,1-f][1,2,4]triazine-7-carbonitrile] | 0.67 |
| N#Cc1cc(CN2CCNC(=O)C2)c(Cl)c(Nc2nc(NC3CC3)c3ncc(C#N)n3n2)c1 [Example 666, 2-((2-chloro-5-cyano-3-((3-oxopiperazin-1-yl)methyl)phenyl)amino)-4-(cyclopropylamino)imidazo[2,1-f][1,2,4]triazine-7-carbonitrile] | 0.3 |
| CN(C)Cc1cc(C#N)cc(Nc2nc(NC3CC3)c3ncc(C#N)n3n2)c1Cl [Example 667, 2-((2-chloro-5-cyano-3-((dimethylamino)methyl)phenyl)amino)-4-(cyclopropylamino)imidazo[2,1-f][1,2,4]triazine-7-carbonitrile] | 0.65 |
| N#Cc1cc(CN2CCNCC2)c(Cl)c(Nc2nc(NC3CC3)c3ncc(C#N)n3n2)c1 [Example 668, 2-((2-chloro-5-cyano-3-(piperazin-1-ylmethyl)phenyl)amino)-4-(cyclopropylamino)imidazo[2,1-f][1,2,4]triazine-7-carbonitrile] | 0.76 |
| N#Cc1cc(CN2CCNCC(O)C2)c(Cl)c(Nc2nc(NC3CC3)c3ncc(C#N)n3n2)c1 (stereo not drawn) [Example 669, 2-((2-chloro-5-cyano-3-((6-hydroxy-1,4-diazepan-1-yl)methyl)phenyl)amino)-4-(cyclopropylamino)imidazo[2,1-f][1,2,4]triazine-7-carbonitrile] | 0.52 |
| CN1CCN(Cc2cc(C#N)cc(Nc3nc(NC4CC4)c4ncc(C#N)n4n3)c2Cl)CC1 [Example 670, 2-((2-chloro-5-cyano-3-((4-methylpiperazin-1-yl)methyl)phenyl)amino)-4-(cyclopropylamino)imidazo[2,1-f][1,2,4]triazine-7-carbonitrile] | 0.76 |
| N#Cc1cc(CN2CCS(=O)(=O)CC2)c(Cl)c(Nc2nc(NC3CC3)c3ncc(C#N)n3n2)c1 [Example 671, 2-((2-chloro-5-cyano-3-((1,1-dioxidothiomorpholino)methyl)phenyl)amino)-4-(cyclopropylamino)imidazo[2,1-f][1,2,4]triazine-7-carbonitrile] | 1.71 |
| N#Cc1cc(CN2CCC(O)CC2)c(Cl)c(Nc2nc(NC3CC3)c3ncc(C#N)n3n2)c1 [Example 672, 2-((2-chloro-5-cyano-3-((4-hydroxypiperidin-1-yl)methyl)phenyl)amino)-4-(cyclopropylamino)imidazo[2,1-f][1,2,4]triazine-7-carbonitrile] | 0.62 |
| N#Cc1cc(CN2CC(O)C2)c(Cl)c(Nc2nc(NC3CC3)c3ncc(C#N)n3n2)c1 [Example 673, 2-((2-chloro-5-cyano-3-((3-hydroxyazetidin-1-yl)methyl)phenyl)amino)-4-(cyclopropylamino)imidazo[2,1-f][1,2,4]triazine-7-carbonitrile] | 0.49 |
| CC(C)(CO)NCc1cc(C#N)cc(Nc2nc(NC3CC3)c3ncc(C#N)n3n2)c1Cl [Example 674, 2-((2-chloro-5-cyano-3-(((1-hydroxy-2-methylpropan-2-yl)amino)methyl)phenyl)amino)-4-(cyclopropylamino)imidazo[2,1-f][1,2,4]triazine-7-carbonitrile] | 1.74 |
| CC(=O)c1cc(C#N)cc(Nc2nc(NC3CC3)c3ncc(C#N)n3n2)c1Cl [Example 675, 2-((3-acetyl-2-chloro-5-cyanophenyl)amino)-4-(cyclopropylamino)imidazo[2,1-f][1,2,4]triazine-7-carbonitrile] | 0.24 |
| CC(C)(O)c1cc(C#N)cc(Nc2nc(NC3CC3)c3ncc(C#N)n3n2)c1Cl [Example 676, 2-((2-chloro-5-cyano-3-(2-hydroxypropan-2-yl)phenyl)amino)-4-(cyclopropylamino)imidazo[2,1-f][1,2,4]triazine-7-carbonitrile] | 0.41 |
| N#Cc1cc(CN=[N+]=[N-])c(Cl)c(Nc2nc(NC3CC3)c3ncc(C#N)n3n2)c1 [Example 683, 2-((3-(azidomethyl)-2-chloro-5-cyanophenyl)amino)-4-(cyclopropylamino)imidazo[2,1-f][1,2,4]triazine-7-carbonitrile] | 0.14 |
| N#Cc1cc(Nc2nc(NC3CC3)c3ncc(C#N)n3n2)c(Cl)c(C(O)CN2CCOCC2)c1 (stereo not drawn) [Example 684, 2-((2-chloro-5-cyano-3-(1-hydroxy-2-morpholinoethyl)phenyl)amino)-4-(cyclopropylamino)imidazo[2,1-f][1,2,4]triazine-7-carbonitrile] | 1.34 |
| COCCNCC(O)c1cc(C#N)cc(Nc2nc(NC3CC3)c3ncc(C#N)n3n2)c1Cl (stereo not drawn) [Example 685, 2-((2-chloro-5-cyano-3-(1-hydroxy-2-((2-methoxyethyl)amino)ethyl)phenyl)amino)-4-(cyclopropylamino)imidazo[2,1-f][1,2,4]triazine-7-carbonitrile] | 0.95 |
| CN1CCN(CC(O)c2cc(C#N)cc(Nc3nc(NC4CC4)c4ncc(C#N)n4n3)c2Cl)CC1 (stereo not drawn) [Example 686, 2-((2-chloro-5-cyano-3-(1-hydroxy-2-(4-methylpiperazin-1-yl)ethyl)phenyl)amino)-4-(cyclopropylamino)imidazo[2,1-f][1,2,4]triazine-7-carbonitrile] | 1.3 |
| CS(=O)(=O)N1CCN(CC(O)c2cc(C#N)cc(Nc3nc(NC4CC4)c4ncc(C#N)n4n3)c2Cl)CC1 (stereo not drawn) [Example 687, 2-((2-chloro-5-cyano-3-(1-hydroxy-2-(4-(methylsulfonyl)piperazin-1-yl)ethyl)phenyl)amino)-4-(cyclopropylamino)imidazo[2,1-f][1,2,4]triazine-7-carbonitrile] | 0.99 |
| N#Cc1cc(Nc2nc(NC3CC3)c3ncc(C#N)n3n2)c(Cl)c(C(O)CN2CCC(O)CC2)c1 (stereo not drawn) [Example 688, 2-((2-chloro-5-cyano-3-(1-hydroxy-2-(4-hydroxypiperidin-1-yl)ethyl)phenyl)amino)-4-(cyclopropylamino)imidazo[2,1-f][1,2,4]triazine-7-carbonitrile] | 2.4 |
| CC(=O)N1CCN(CC(O)c2cc(C#N)cc(Nc3nc(NC4CC4)c4ncc(C#N)n4n3)c2Cl)CC1 (stereo not drawn) [Example 689, 2-((3-(2-(4-acetylpiperazin-1-yl)-1-hydroxyethyl)-2-chloro-5-cyanophenyl)amino)-4-(cyclopropylamino)imidazo[2,1-f][1,2,4]triazine-7-carbonitrile] | 1 |
| CC1(O)CCN(CC(O)c2cc(C#N)cc(Nc3nc(NC4CC4)c4ncc(C#N)n4n3)c2Cl)CC1 (stereo not drawn) [Example 690, 2-((2-chloro-5-cyano-3-(1-hydroxy-2-(4-hydroxy-4-methylpiperidin-1-yl)ethyl)phenyl)amino)-4-(cyclopropylamino)imidazo[2,1-f][1,2,4]triazine-7-carbonitrile] | 3.4 |
| CC(C)(O)CNCC(O)c1cc(C#N)cc(Nc2nc(NC3CC3)c3ncc(C#N)n3n2)c1Cl (stereo not drawn) [Example 691, 2-((2-chloro-5-cyano-3-(1-hydroxy-2-((2-hydroxy-2-methylpropyl)amino)ethyl)phenyl)amino)-4-(cyclopropylamino)imidazo[2,1-f][1,2,4]triazine-7-carbonitrile] | 1.81 |
| CC(C)(C)NCC(O)c1cc(C#N)cc(Nc2nc(NC3CC3)c3ncc(C#N)n3n2)c1Cl (stereo not drawn) [Example 692, 2-((3-(2-(tert-butylamino)-1-hydroxyethyl)-2-chloro-5-cyanophenyl)amino)-4-(cyclopropylamino)imidazo[2,1-f][1,2,4]triazine-7-carbonitrile] | 1.81 |
| CC(C)(CO)NCC(O)c1cc(C#N)cc(Nc2nc(NC3CC3)c3ncc(C#N)n3n2)c1Cl (stereo not drawn) [Example 693, 2-((2-chloro-5-cyano-3-(1-hydroxy-2-((1-hydroxy-2-methylpropan-2-yl)amino)ethyl)phenyl)amino)-4-(cyclopropylamino)imidazo[2,1-f][1,2,4]triazine-7-carbonitrile] | 1.1 |
